Data from patent publication US8198273B2, “Compounds and methods for kinase modulation, and indications therefor” (Plexxikon Inc., priority 2009, dated 2012).
pIC50: −log10 of the molar value.

Tests used:
[1] = system: SW620 colon adenocarcinoma cells (wild-type B-RAF); experiment: SW620 cell growth inhibition (ATPlite); format: cell-based; details: Homo sapiens, SW-620, 72 h; SW620, 3 days incubation
Summary of the method: (§1)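 Cells plated overnight, then exposed 3 days at 37° C to 8-point 1:3 compound dilutions topping at 10 μM final. Viability read as ATPlite luminescence, proportional to cell number; IC50 from luminescence versus concentration.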

[2] = system: A375 melanoma cells (B-Raf V600E); experiment: A375 cell growth inhibition (ATPlite); format: cell-based; details: Homo sapiens, A-375, 72 h; A375, 3 days incubation
Summary of the method: as §1

[3] = system: SKMEL2 melanoma cells (Ras mutation); experiment: SKMEL2 cell growth inhibition (ATPlite); format: cell-based; details: Homo sapiens, SK-MEL-2, 72 h; SKMEL2, 3 days incubation
Summary of the method: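 SKMEL2 cells seeded at 2,000 per well overnight, then exposed to an 8-point 1:3 compound titration (top 10 μM final) for 3 days at 37 °C. ATPlite luminescence used as a measure of cell number to derive IC50.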

[4] = molecular target: CYP2C9 (Homo sapiens, UniProt P11712); experiment: CYP2C9 inhibition (fluorescent substrate); format: in vitro ADME; details: CYP2C9, MFC substrate; read-out: Cyp IC50 2C9
Sequence of CYP2C9 (P11712 whole entry): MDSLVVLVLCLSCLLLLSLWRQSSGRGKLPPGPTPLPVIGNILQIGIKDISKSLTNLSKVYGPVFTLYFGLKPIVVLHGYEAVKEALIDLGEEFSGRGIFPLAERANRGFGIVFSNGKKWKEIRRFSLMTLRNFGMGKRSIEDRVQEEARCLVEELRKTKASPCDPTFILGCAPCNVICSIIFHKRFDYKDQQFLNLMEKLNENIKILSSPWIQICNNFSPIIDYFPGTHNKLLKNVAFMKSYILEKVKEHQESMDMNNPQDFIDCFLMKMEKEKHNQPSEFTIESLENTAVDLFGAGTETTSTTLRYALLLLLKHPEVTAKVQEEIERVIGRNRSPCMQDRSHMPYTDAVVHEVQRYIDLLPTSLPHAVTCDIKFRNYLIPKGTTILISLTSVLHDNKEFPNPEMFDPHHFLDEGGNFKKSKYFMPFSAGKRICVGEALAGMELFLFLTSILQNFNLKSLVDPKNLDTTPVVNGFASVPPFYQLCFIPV
Summary of the method: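 IC50 values come from plotting product fluorescence against compound concentration; inhibition lowers formation of the fluorescent metabolite. Ten-point twofold dilutions in co-factor mix were held 10 minutes at 37 °C before the enzyme reaction, also run at 37 °C.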

[5] = molecular target: CYP3A4(BFC) (Homo sapiens, UniProt P08684); experiment: CYP3A4(BFC) inhibition (fluorescent substrate); format: in vitro ADME; details: read-out: Cyp IC50 3A4(BFC)
Sequence of CYP3A4(BFC) (P08684 whole entry): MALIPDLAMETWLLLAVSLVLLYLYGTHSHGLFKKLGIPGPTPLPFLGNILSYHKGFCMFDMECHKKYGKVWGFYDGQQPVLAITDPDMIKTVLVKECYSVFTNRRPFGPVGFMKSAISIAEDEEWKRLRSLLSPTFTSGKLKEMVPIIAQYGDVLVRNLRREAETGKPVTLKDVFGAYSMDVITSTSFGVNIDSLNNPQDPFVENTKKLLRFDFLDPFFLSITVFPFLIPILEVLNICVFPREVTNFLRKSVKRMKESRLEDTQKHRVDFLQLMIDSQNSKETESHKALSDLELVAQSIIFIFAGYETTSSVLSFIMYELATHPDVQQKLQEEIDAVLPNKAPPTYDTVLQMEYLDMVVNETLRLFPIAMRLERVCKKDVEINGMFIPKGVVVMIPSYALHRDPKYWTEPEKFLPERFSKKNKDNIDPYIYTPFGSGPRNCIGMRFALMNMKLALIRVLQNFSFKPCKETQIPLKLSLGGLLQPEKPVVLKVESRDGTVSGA
Summary of the method: (§2)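 Inhibition was followed as loss of fluorescent metabolite from a known substrate, with compound in co-factor mix as a 10-point 1:1 serial dilution (100 mM DMSO stock).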

[6] = molecular target: CYP3A4(BQ) (Homo sapiens, UniProt P08684); experiment: CYP3A4(BQ) inhibition (fluorescent substrate); format: in vitro ADME; details: read-out: Cyp IC50 3A4(BQ)
Sequence of CYP3A4(BQ) (P08684 whole entry): as above
Summary of the method: as §2

SMILES	pIC50 [1]	pIC50 [2]	pIC50 [3]	pIC50 [4]	pIC50 [5]	pIC50 [6]
CCCS(=O)(=O)Nc1ccc(F)c(C(=O)c2c[nH]c3ncc(-c4cnn(CCN5CCOCC5)c4)cc23)c1F [P-2177, Propane-1-sulfonic acid (2,4-difluoro-3-{5-[1-(2-morpholin-4-yl-ethyl)-1H-pyrazol-4-yl]-1H-pyrrolo[2,3-b]pyridine-3-carbonyl}-phenyl)-amide]	> 4.70	> 6.00	> 5.00	> 5.30	> 5.30	< 5.00
CCCS(=O)(=O)Nc1ccc(F)c(C(=O)c2c[nH]c3ncc(-c4ccc(OCCCN(C)C)nc4)cc23)c1F [P-2178, Propane-1-sulfonic acid (3-{5-[6-(3-dimethylamino-propoxy)-pyridin-3-yl]-1H-pyrrolo[2,3-b]pyridine-3-carbonyl}-2,4-difluoro-phenyl)-amide]	< 5.00	> 7.00	> 5.30	5.00 to 5.30	< 5.00	> 5.30
N#Cc1ccnc2[nH]cc(C(=O)c3c(F)ccc(NS(=O)(=O)c4cccc(F)c4)c3F)c12 [P-2039, N-[3-(4-Cyano-1H-pyrrolo[2,3-b]pyridine-3-carbonyl)-2,4-difluoro-phenyl]-3-fluoro-benzenesulfonamide]	< 5.00	> 5.30	< 5.00	< 5.00	< 5.00	< 5.00
CCCS(=O)(=O)Nc1ccc(F)c(C(=O)c2c[nH]c3ncc(-c4cnc(C)nc4)cc23)c1F [P-2211, Propane-1-sulfonic acid {2,4-difluoro-3-[5-(2-methyl-pyrimidin-5-yl)-1H-pyrrolo[2,3-b]pyridine-3-carbonyl]-phenyl}-amide]	< 5.00	> 6.00	< 5.00	< 5.00	< 5.00	< 5.00
N#Cc1cnc2[nH]cc(C(=O)c3c(F)ccc(NS(=O)(=O)c4ccccc4F)c3F)c2c1 [P-2011, N-[3-(5-Cyano-1H-pyrrolo[2,3-b]pyridine-3-carbonyl)-2,4-difluoro-phenyl]-2-fluoro-benzenesulfonamide]	< 5.00	> 6.00	< 5.00	< 5.00	< 5.00	< 5.00
CCCS(=O)(=O)Nc1ccc(F)c(C(=O)c2c[nH]c3ncc(-c4cnc(SC)nc4)cc23)c1F [P-2189, Propane-1-sulfonic acid {2,4-difluoro-3-[5-(2-methylsulfanyl-pyrimidin-5-yl)-1H-pyrrolo[2,3-b]pyridine-3-carbonyl]-phenyl}-amide]	< 5.00	> 6.00	> 5.00	> 5.30	< 5.00	> 5.30
N#Cc1ccnc2[nH]cc(C(=O)c3c(F)ccc(NS(=O)(=O)c4cccnc4)c3F)c12 [P-2077, Pyridine-3-sulfonic acid [3-(4-cyano-1H-pyrrolo[2,3-b]pyridine-3-carbonyl)-2,4-difluoro-phenyl]-amide]	< 5.00	> 5.00	< 5.00	5.00 to 5.30	5.00 to 5.30	5.00 to 5.30
O=C(c1c(F)ccc(NS(=O)(=O)c2cccc(F)c2)c1F)c1c[nH]c2nccc(Cl)c12 [P-2019, N-[3-(4-Chloro-1H-pyrrolo[2,3-b]pyridine-3-carbonyl)-2,4-difluoro-phenyl]-3-fluoro-benzenesulfonamide]	< 5.00	> 5.30	< 5.00	< 5.00	5.00 to 5.30	< 5.00
N#Cc1cnc2[nH]cc(C(=O)c3cccc(NS(=O)(=O)c4cc(F)ccc4F)c3F)c2c1 [P-2052, N-[3-(5-Cyano-1H-pyrrolo[2,3-b]pyridine-3-carbonyl)-2-fluoro-phenyl]-2,5-difluoro-benzenesulfonamide]	< 5.00	> 6.00	< 5.00	> 5.30	5.00 to 5.30	< 5.00
CCCS(=O)(=O)Nc1ccc(F)c(C(=O)c2c[nH]c3ncc(-c4ccc(Cl)nc4)cc23)c1F [P-2154, Propane-1-sulfonic acid {3-[5-(6-chloro-pyridin-3-yl)-1H-pyrrolo[2,3-b]pyridine-3-carbonyl]-2,4-difluoro-phenyl}-amide]	< 5.00	> 6.00	< 5.00	5.00 to 5.30	< 5.00	< 5.00
Cc1cnc2[nH]cc(C(=O)c3c(F)ccc(NS(=O)(=O)c4cc(F)ccc4F)c3F)c2c1 [P-2015, N-[2,4-Difluoro-3-(5-methyl-1H-pyrrolo[2,3-b]pyridine-3-carbonyl)-phenyl]-2,5-difluoro-benzenesulfonamide]	< 5.00	> 6.00	< 5.00	< 5.00	< 5.00	< 5.00
CCCS(=O)(=O)Nc1ccc(F)c(C(=O)c2c[nH]c3ncc(C#CCOC)cc23)c1F [P-2239, Propane-1-sulfonic acid {2,4-difluoro-3-[5-(3-methoxy-prop-1-ynyl)-1H-pyrrolo[2,3-b]pyridine-3-carbonyl]-phenyl}-amide]	< 5.00	> 6.00	> 4.70	5.00 to 5.30	5.00 to 5.30	5.00 to 5.30
COc1ccnc2[nH]cc(C(=O)c3c(F)ccc(NS(=O)(=O)c4cccnc4)c3F)c12 [P-2073, Pyridine-3-sulfonic acid [2,4-difluoro-3-(4-methoxy-1H-pyrrolo[2,3-b]pyridine-3-carbonyl)-phenyl]-amide]	< 5.00	> 5.00	< 5.00	< 5.00	5.00 to 5.30	> 5.30
CCCS(=O)(=O)Nc1ccc(F)c(C(=O)c2c[nH]c3ncc(-c4ccc(S(=O)(=O)NC)cc4)cc23)c1F [P-2167, 4-{3-[2,6-Difluoro-3-(propane-1-sulfonylamino)-benzoyl]-1H-pyrrolo[2,3-b]pyridin-5-yl}-N-methyl-benzenesulfonamide]	> 5.00	> 6.00	> 5.30	5.00 to 5.30	< 5.00	5.00 to 5.30
CCCS(=O)(=O)Nc1ccc(F)c(C(=O)c2c[nH]c3ncc(-c4ccc(NS(C)(=O)=O)cc4)cc23)c1F [P-2165, Propane-1-sulfonic acid {2,4-difluoro-3-[5-(4-methanesulfonylamino-phenyl)-1H-pyrrolo[2,3-b]pyridine-3-carbonyl]-phenyl}-amide]	> 5.00	> 6.00	> 5.00	5.00 to 5.30	< 5.00	< 5.00
CCCS(=O)(=O)Nc1ccc(F)c(C(=O)c2c[nH]c3ncc(-c4ccc(S(=O)(=O)N5CCOCC5)cc4)cc23)c1F [P-2166, Propane-1-sulfonic acid (2,4-difluoro-3-{5-[4-(morpholine-4-sulfonyl)-phenyl]-1H-pyrrolo[2,3-b]pyridine-3-carbonyl}-phenyl)-amide]	> 5.00	> 6.00	> 5.30	< 5.00	< 5.00	< 5.00
Cc1cnc2[nH]cc(C(=O)c3c(F)ccc(NS(=O)(=O)c4ccccc4F)c3F)c2c1 [P-2014, N-[2,4-Difluoro-3-(5-methyl-1H-pyrrolo[2,3-b]pyridine-3-carbonyl)-phenyl]-2-fluoro-benzenesulfonamide]	< 5.00	> 6.00	< 5.00	< 5.00	< 5.00	< 5.00
CCCS(=O)(=O)Nc1ccc(F)c(C(=O)c2c[nH]c3ncc(-c4ccc(S(=O)(=O)N(C)C)cc4)cc23)c1F [P-2185, 4-{3-[2,6-Difluoro-3-(propane-1-sulfonylamino)-benzoyl]-1H-pyrrolo[2,3-b]pyridin-5-yl}-N,N-dimethyl-benzenesulfonamide]	< 5.00	> 7.00	< 5.00	> 5.30	< 5.00	< 5.00
N#Cc1ccnc2[nH]cc(C(=O)c3c(F)ccc(NS(=O)(=O)c4cc(F)ccc4F)c3F)c12 [P-2036, N-[3-(4-Cyano-1H-pyrrolo[2,3-b]pyridine-3-carbonyl)-2,4-difluoro-phenyl]-2,5-difluoro-benzenesulfonamide]	< 5.00	> 5.30	< 5.00	< 5.00	< 5.00	< 5.00
